Measured values taken from US12503446B2, “Bromodomain inhibitors” (FORSCHUNGSZENTRUM JÜLICH GMBH, priority 2019, dated 2025).

Key:
[1] = system: erythroleukaemia cell line HEL (JAK2V617F-positive); assay: MTT assay, metabolic activity of HEL cells; type: cell-based; settings: 1 μM, 72 h, DMSO control set to 100%
Procedure: (§1) All studies with the HEL, Molm-14 and K562 cell lines mentioned (sourced from DSMZ: ACC-11, ACC-10 and ACC-777) were conducted under germ-free conditions under a sterile hood. Incubation was effected at 37° C. in an incubator at a CO2 saturation of 5%. For the passage of the suspension cells, the cells were transferred in a Falcon prefilled with PBS (phosphate buffered saline) and centrifuged at 1200 rpm for 5 min. All three cell lines were cultured in RPMI-1640 medium (Gibco, Thermo Fischer Scientific, Darmstadt, Germany) with 10% FCS and 1% penicillin streptomycin.
(§2) The viability and metabolic activity of the cells were measured by the MTT assay. Yellow, water-soluble MTT (3-([…])-2,5-diphenyltetrazolium bromide) is a tetrazolium salt which is reduced to dark blue formazan in living cells. Insoluble formazan is released by addition of isopropanol-HCl, and its intensity can be determined by photometry at a wavelength of 550 nm. Thus, the proportion of living cells is measured by comparison with a particular control sample. The cells were counted and washed with PBS, and 30 000 cells per well were sown in triplicates in a 96-well plate. For the inhibitor treatment, the stated final concentrations were used. For this purpose, 10 µl of the appropriate inhibitor dilution was introduced into the 96-well plates, and then 90 μl of cell suspension was pipetted in. The plates were incubated in an incubator for 72 h (37° C., 5% CO2). After the incubation, 10 μl of MTT solution (5 mg/ml) was applied to the wells with a multichannel pipette and thoroughly resuspended. This was followed by incubation for 4 h in the dark at room temperature. Subsequently, the cells were resuspended in 100 μl of isopropanol-HCl and lysed, and absorption at a wavelength of 550 nm was measured by photometry with a plate reader (Kayto, RT-2100C).
(§3) The erythroleukaemia cell line HEL (JAK2V617F-positive), the AML cell line Molm-14 and the chronic myeloid leukaemia (CML) cell line K562 (BCR-ABL-positive) were used for cell experiments.
(§4) Compounds MF1-R, MF1-S, JHS1-R and JHS1-S were dissolved in DMSO, and each was used in concentrations of 0.1 μM, 1 μM, 10 μM and 20 μM. Correspondingly, DMSO was included in each case as a control treatment, and the metabolic activity thereof was set to 100%. The HEL, Molm-14 and K562 cell lines were treated with the respective compounds in the different concentrations and, after 72 h in culture, the metabolic activity, which gives information about the growth of the cells, was determined by means of MTT [3-(4,5-dimethylthiazol-2-yl)-2,5-diphenyltetrazolium bromide] assay.

AML cell line Molm-14 = assay: MTT assay, metabolic activity of Molm-14 cells; type: cell-based; settings: 1 μM, 72 h, DMSO control set to 100%
Procedure: as §1, §2, §3, §4

Molm-14 cells [2] = assay: Proliferation assay, cell count after trypan blue staining, Molm-14; type: cell-based; settings: 1 or 5 μM, 24-72 h, by comparison with PFI-1
Procedure: (§5) Cell count and viability was determined after trypan blue staining. The appropriate concentrations of the inhibitors per ml of medium were added, or the correspondingly highest volume of DMSO was added as control group.
The cell growth described here is referred to as proliferation, and gives information as to the cell divisions that proceeded in the specified period.

Molm-14 cells [3] = assay: Viability from trypan blue staining, Molm-14; type: cell-based; settings: 5 μM, compared to PFI-1
Procedure: as §5
During the study of cell proliferation, the viability of the cell lines was likewise determined from the trypan blue staining. Trypan blue cannot penetrate into living cells.

[4] = system: PARP1 cleavage in Molm-14 cells; assay: PARP1 cleavage Western blot (apoptosis), Molm-14; type: cell-based; settings: 5 μM
Procedure: Cell lysates were produced with RIPA lysis buffer (50 mM Tris pH 7.4, 150 mM sodium chloride, 1 mM EDTA, 1% Triton-X, 15% glycerol, 0.5% sodium deoxycholate, and protease/phosphatase inhibitors). Protein concentrations were determined by the Bradford Protein Assay using a Nanodrop Spectrometer (NanoDrop 2000/2000c system, Thermo Fisher Scientific, Darmstadt, Germany) at 595 nm. To 25 μg of protein lysates was added 4xLämmli sample buffer, followed by denaturing at 65° C. for 5 min and introduction into the SDS-Page. The proteins were transferred by the wet blot method in Towbin buffer (3 g Tris, 14.4 g glycine, 5% methanol per litre of ddH2O) to a PVDF membrane at 100 mA overnight. The membrane was blocked with 10% BSA in TBS-T buffer (20 mM Tris-HCl, pH 7.6, 137 mM NaCl, 0.05% IGEPAL). The primary antibodies were incubated at 4° C. overnight, and the HRP-labelled antibodies at room temperature with the membrane for […]. The proteins were detected by means of PCA-ECL solution using a chemiluminescence detector (Fusion SL, PeqLab).
In addition, a possible induction of apoptosis in the cell lines described by compound MF2 was examined. […] The cleavage of the PARP1 protein is an indicator of incipient apoptosis (cell death) of the cells, and the cleavage products of PARP1 were accordingly examined by Western blot. In detail, after the inhibitor treatment, cell lysates were produced with RIPA lysis buffer. Protein concentrations were determined with the Bradford protein assay using a Nanodrop Spectrometer at 595 nm. To 25 μg of the protein lysates was added 4×Lämmli sample buffer, followed by denaturing at 65° C. for 5 min and introduction into the SDS-Page. The proteins were transferred by the wet blot method to a PVDF membrane at 100 mA overnight. The membrane was blocked with 10% BSA in TBS-T buffer. The primary antibodies were incubated at 4° C. overnight, and the HRP-labelled antibodies at room temperature with the membrane for 45 min. The proteins were detected by means of PCA-ECL solution using a chemiluminescence detector (Fusion SL, PeqLab). […]

[5] = system: proteins from the BET family; assay: Thermal shift assay (BromoMELT assay), BET family; type: binding; settings: 10 μM, duplicates, versus DMSO control; apart from BRDT-2
Procedure: The experiment was conducted in duplicates at a concentration of 10 μM.

[6] = system: haematopoietic cell lines, erythroleukaemia and AML cell lines; assay: Inhibitory activity in haematopoietic cell lines (summary statements); type: cell-based
Procedure: as §1, §2

SMILES: CN1Cc2cc(N=[S@@](C)(=O)c3ccccc3)ccc2NC1=O [MF2-S, (S)—N-(3-methyl-2-oxo-1,2,3,4-tetrahydroquinazolin-6-yl)-S-methyl-S-phenylsulfoximine]
- metabolic activity of HEL cells [1]: 37.24%±6.19
- metabolic activity of Molm-14 cells (AML cell line Molm-14): 55.19%±0.72
- cell proliferation (cell count) of Molm-14 (Molm-14 cells [2]): significantly reduced the cell proliferation
- viability of Molm-14 cells (Molm-14 cells [3]): significantly reduced the viability
- uncleaved PARP1, Molm-14 ([4]; 48 h): less uncleaved PARP1 was apparent
- band for the PARP1 cleavage product, Molm-14 ([4]; 48 h, compared to PFI-1): same intensity
- induction of apoptosis, Molm-14 ([4]; compared to MF2, MF2-R, PFI-1): induced apoptosis more strongly than the other compounds examined
- binding of BET family proteins (ΔTm, in words) [5]: equally good or better binding of proteins from the BET family compared to the comparative compound PFI-1
- inhibitory activity in haematopoietic / leukaemia cell lines (in words) [6]: excellent inhibition of the cell proliferation
